Patent US20230131966A1, “FUNGICIDAL AMIDES” (FMC Corporation, priority 2020, published 2023)

Experiments:
Assay type in all cases: in vivo
Botrytis cinerea = experiment: Test E: tomato Botrytis control on tomato seedlings; settings: 250 ppm, 100 = 100% disease control, 0 = no control
Zymoseptoria tritici = experiment: Test C: wheat leaf blotch control on wheat seedlings; settings: 250 ppm; wheat seedlings; 100 = 100% disease control, 0 = no control
[1] = tested on: Erysiphe graminis f. sp. tritici; experiment: Test G: wheat powdery mildew control on wheat seedlings; settings: 250 ppm, 100 = 100% disease control, 0 = no control
Phakopsora pachyrhizi = experiment: Test A: Asian soybean rust control on soybean seedlings; settings: 250 ppm; soybean seedlings; 100 = 100% disease control, 0 = no control
[2] = tested on: Puccinia recondita f. sp. tritici; experiment: Test B: wheat leaf rust control on wheat seedlings; settings: 250 ppm; wheat seedlings; 100 = 100% disease control, 0 = no control
Plasmopara viticola = experiment: Test D: grape downy mildew control on grape seedlings; settings: 250 ppm, 100 = 100% disease control, 0 = no control
Phytophthora infestans = experiment: whole plant or invertebrate; settings: 250 ppm; tomato seedlings; 100 = 100% disease control, 0 = no control

| Compound | Test E disease control rating (Botrytis cinerea) | Test C disease control rating (Zymoseptoria tritici) | Test G disease control rating [1] | Test A disease control rating (Phakopsora pachyrhizi) | Test B disease control rating [2] | Test D disease control rating (Plasmopara viticola) | Test F disease control rating (Phytophthora infestans) |
| --- | --- | --- | --- | --- | --- | --- | --- |
| COc1ccnc(C(=O)N[C@@H](C)C(=O)OC(C)c2cccc3ccccc23)c1OC(C)=O (single isomer, unassigned) [Compound 116] | 0% | 95% | 0% | 100% | 100% | 55% | 0% |
| COc1ccnc(C(=O)N[C@@H](C)C(=O)OC(C)c2ccc(CC3CCCCC3)cc2)c1OC(C)=O (single isomer, unassigned) [Compound 128] | 0% | 83% | 0% | 95% | 90% | 57% | 0% |
| COc1ccnc(C(=O)N[C@@H](C)C(=O)OC(C)c2ccc(CC3CCCCC3)cc2)c1OC(C)=O (single isomer, unassigned) [Compound 129] | 0% | 91% | 0% | 100% | 100% | 32% | 0% |
| CCC(OC(=O)[C@H](C)NC(=O)c1nccc(OC)c1OC(C)=O)c1ccc(C2CCCCC2)cc1 (single isomer, unassigned) [Compound 130] | 0% | 12% | 0% | 96% | 74% | 9% | 0% |
| CCC(OC(=O)[C@H](C)NC(=O)c1nccc(OC)c1OC(C)=O)c1ccc(C2CCCCC2)cc1 (single isomer, unassigned) [Compound 131] | 0% | 87% | 89% | 100% | 96% | 6% | 0% |
| CCC(OC(=O)[C@H](C)NC(=O)c1nccc(OC)c1OCOC(=O)C(C)C)c1ccc(C2CCCCC2)cc1 (single isomer, unassigned) [Compound 132] | 0% | 30% | 0% | 75% | 68% | 29% | 0% |
| CCC(OC(=O)[C@H](C)NC(=O)c1nccc(OC)c1OCOC(=O)C(C)C)c1ccc(C2CCCCC2)cc1 (single isomer, unassigned) [Compound 133] | 0% | 93% | 0% | 100% | 99% | 24% | 0% |
| CCC(OC(=O)[C@H](C)NC(=O)c1nccc(OC)c1OCOC(C)=O)c1ccc(C2CCCCC2)cc1 (single isomer, unassigned) [Compound 134] | 0% | 64% | 0% | 97% | 74% | 33% | 0% |
| CCC(OC(=O)[C@H](C)NC(=O)c1nccc(OC)c1OCOC(C)=O)c1ccc(C2CCCCC2)cc1 (single isomer, unassigned) [Compound 135] | 0% | 81% | 86% | 100% | 98% | 29% | 0% |
| COc1ccnc(C(=O)N[C@@H](C)C(=O)OC(C)c2ccc(C3CCCCC3)cc2)c1OCOC(=O)C(C)C (single isomer, unassigned) [Compound 144] | 0% | 93% | 0% | 77% | 86% | 35% | 0% |
| COc1ccnc(C(=O)N[C@@H](C)C(=O)OC(C)c2ccc(C3CCCCC3)cc2)c1OCOC(=O)C(C)C (single isomer, unassigned) [Compound 145] | 0% | 94% | 0% | 100% | 99% | 22% | 0% |
